Reference: patent US11077214B2, “Multimodal CT/optical agents” (University Health Network, priority 2013, dated 2021)

Assay: In vitro photostability of ICG fluorescence at room temperature
Type: physicochemical
Conditions: 3 days at room temperature
Protocol: The size of the liposome samples was measured using dynamic light scattering (DLS) (90Plus, Brookhaven, Holtsville, N.Y.). The iodine and ICG concentrations were determined using an absorbance assay at a wavelength of 245 nm for iodine and 785 nm for ICG (Cary 50 UV/VIS Spectrophotometer, Varian Inc., Palo Alto, Calif.). The lipid components of the liposome sample was analyzed using ultra performance liquid chromatography (UPLC, ACQUITY, Waters, Milford, Mass.) equipped with an evaporative light scattering detector (ELSD). The in vitro fluorescence measurements were performed using a 2D fluorescence imager (excitation/emission: 735/820 nm, CRI Maestro, Perkin Elmer, Waltham, Mass.).
Free ICG diluted in water, a 1:10 ethanol/water mixture and a 0.5:10 iohexol/water mixture yielded only 8±2%, 3±1%, 7±2% of its original fluorescence, respectively. […] The photostability of the encapsulated ICG was investigated by incubating the liposome samples and the free ICG solutions (at 7 physiologically relevant concentrations ranging from 0.5 to 2.5 μg/mL) at room temperature over a 21-day period.

CC1(C)C(/C=C/C=C/C=C/C=C2\N(CCCCS(=O)(=O)O)c3ccc4ccccc4c3C2(C)C)=[N+](CCCCS(=O)(=O)[O-])c2ccc3ccccc3c21 [Free ICG, indocyanine green]
retained original fluorescence signal (diluted in 0.5:10 iohexol/water mixture): 7±2%
retained original fluorescence signal (diluted in 1:10 ethanol/water mixture): 3±1%
retained original fluorescence signal (diluted in water): 8±2%
